Like-named read-outs stand apart in the source and are kept apart here.
Biological target: T1, androgen receptor (AR) (Homo sapiens, UniProt P10275)
T1 sequence (P10275 1-920): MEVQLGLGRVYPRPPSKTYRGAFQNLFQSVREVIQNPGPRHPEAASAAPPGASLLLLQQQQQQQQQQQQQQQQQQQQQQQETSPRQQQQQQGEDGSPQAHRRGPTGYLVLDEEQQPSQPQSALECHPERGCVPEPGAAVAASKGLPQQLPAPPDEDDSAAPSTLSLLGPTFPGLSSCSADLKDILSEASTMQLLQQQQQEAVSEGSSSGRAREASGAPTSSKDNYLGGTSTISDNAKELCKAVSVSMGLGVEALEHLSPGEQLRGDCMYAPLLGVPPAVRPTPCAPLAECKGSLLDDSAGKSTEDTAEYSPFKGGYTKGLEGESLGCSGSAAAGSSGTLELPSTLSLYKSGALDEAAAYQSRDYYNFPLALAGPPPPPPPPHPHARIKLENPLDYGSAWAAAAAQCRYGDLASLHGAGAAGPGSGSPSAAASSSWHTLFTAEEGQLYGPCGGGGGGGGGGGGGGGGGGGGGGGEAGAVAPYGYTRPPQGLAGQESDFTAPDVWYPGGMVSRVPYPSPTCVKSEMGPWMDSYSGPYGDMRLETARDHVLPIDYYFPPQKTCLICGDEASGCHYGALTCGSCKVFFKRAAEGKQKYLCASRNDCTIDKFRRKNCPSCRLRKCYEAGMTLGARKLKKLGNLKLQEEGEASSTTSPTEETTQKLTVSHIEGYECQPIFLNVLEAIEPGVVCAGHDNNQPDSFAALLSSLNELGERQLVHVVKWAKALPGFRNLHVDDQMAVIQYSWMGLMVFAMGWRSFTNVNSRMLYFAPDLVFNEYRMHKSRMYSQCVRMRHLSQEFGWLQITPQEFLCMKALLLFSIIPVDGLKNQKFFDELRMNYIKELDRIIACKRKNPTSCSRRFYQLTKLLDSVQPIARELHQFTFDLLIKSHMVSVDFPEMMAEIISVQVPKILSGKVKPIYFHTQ
Test: Degradation of androgen receptor (AR) protein in VCaP cells by ELISA
Format: cell-based
Settings: for Dmax: VCaP; for inhibition at 0.1 µM: percentage of degraded AR at 100 nM, read-out: % degradation

[1] = AR degradation, VCaP cells, 16 h, ELISA, Table 3-1, read-out: DC50
[2] = AR degradation, VCaP cells, 16 h, ELISA, Table 3-1, read-out: Dmax (%)
[3] = AR degradation, VCaP cells, 16 h, ELISA, Table 3-2, read-out: DC50
[4] = AR degradation, VCaP cells, 16 h, ELISA, Table 3-2, read-out: Dmax (%)

| Molecule | DC50 [1] [nM] | Dmax [2] [%] | further results |
| --- | --- | --- | --- |
| CC1(C)[C@H](Oc2ccc(C#N)c(Cl)c2)C(C)(C)[C@H]1N1Cc2nc(C#C[C@H]3CC[C@H](N4CCN(c5cc6c(cc5F)C(=O)N(C5CCC(=O)NC5=O)C6=O)CC4)CC3)cnc2C1=O (stereo partly drawn) [Compound 380] | 10 to 100 | 60 to 80 | – |
| N#Cc1ccc(O[C@H]2CC[C@H](NC(=O)c3cnc(N4CCC(CN5CCC6(CC5)CN(c5ccc7c(c5)C(=O)N(C5CCC(=O)NC5=O)C7=O)C6)CC4)nc3)CC2)cc1Cl (stereo partly drawn) [Compound 267] | < 10 | > 80 | – |
| CC1(C)[C@H](Oc2ccc(C#N)c(Cl)c2)C(C)(C)[C@H]1N1Cc2nc(N3CCC(CN4CCN(c5cc6c(cc5F)C(=O)N(C5CCC(=O)NC5=O)C6)CC4)CC3)ccc2C1=O (stereo partly drawn) [Compound 206] | – | – | inhibition at 0.1 µM (VCaP cells, 16 h, ELISA): 25 to 49% |
| C[C@@H]1CN(C[C@@H]2[C@H]3CN(c4cc5c(cc4F)C(=O)N(C4CCC(=O)NC4=O)C5=O)C[C@@H]23)CCN1c1ccc(C(=O)N[C@H]2CC[C@H](Oc3ccc(C#N)c(Cl)c3)CC2)nn1 (stereo partly drawn) [Compound 263] | < 10 | 60 to 80 | – |
| COc1cc(O[C@H]2C(C)(C)[C@H](N3Cc4nc(C#C[C@H]5CC[C@H](N6CCN(c7cc8c(cc7F)C(=O)N(C7CCC(=O)NC7=O)C8=O)CC6)CC5)ccc4C3=O)C2(C)C)ccc1C#N (stereo partly drawn) [Compound 399] | – | – | DC50 [3]: < 10 nM; Dmax [4]: > 80% |
| Cc1cc(O[C@H]2C(C)(C)[C@H](N3Cc4nc(C#C[C@H]5CC[C@H](N6CCN(c7cc8c(cc7F)C(=O)N(C7CCC(=O)NC7=O)C8=O)CC6)CC5)ccc4C3=O)C2(C)C)ccc1C#N (stereo partly drawn) [Compound 401] | – | – | DC50 [3]: 10 to 100 nM; Dmax: > 80% |
| N#Cc1ccc(OC2CCC(NC(=O)c3cnc(N4CCN(C5CC6(CCN(c7ccc8c(c7)C(=O)N(C7CCC(=O)NC7=O)C8=O)CC6)C5)CC4)cn3)CC2)cc1Cl (stereo not drawn) [Compound 278, N-((1r,4r)-4-(3-chloro-4-cyanophenoxy)cyclohexyl)-5-(4-(7-(2-(2,6-dioxopiperidin-3-yl)-1,3-dioxoisoindolin-5-yl)-7-azaspiro[3.5]nonan-2-yl)piperazin-1-yl)pyrazine-2-carboxamide] | < 10 | – | Dmax (%) (AR degradation, VCaP cells, 16 h, ELISA, Table 3-1): ++++ (>80%) |
| N#Cc1ccc(O[C@H]2CC[C@H](NC(=O)c3ccc(N4CCC(N5CCC6(CC5)CN(c5ccc7c(c5)C(=O)N(C5CCC(=O)NC5=O)C7=O)C6)CC4)nn3)CC2)cc1Cl (stereo partly drawn) [Compound 281, N-((1r,4r)-4-(3-chloro-4-cyanophenoxy)cyclohexyl)-6-(4-(2-(2-(2,6-dioxopiperidin-3-yl)-1,3-dioxoisoindolin-5-yl)-2,7-diazaspiro[3.5]nonan-7-yl)piperidin-1-yl)pyridazine-3-formamide] | < 10 | > 80 | – |
| N#Cc1ccc(O[C@H]2CC[C@H](NC(=O)c3nc(N4CCC(CN5CCC6(CC5)CN(c5ccc7c(c5)C(=O)N(C5CCC(=O)NC5=O)C7=O)C6)CC4)no3)CC2)cc1Cl (stereo partly drawn) [Compound 413] | – | – | DC50: < 10 nM; Dmax: > 80% |
| Cc1cc(O[C@H]2CC[C@H](NC(=O)c3ccc(N4CCC(CN5CCC6(CC5)CN(c5ccc7c(c5)C(=O)N(C5CCC(=O)NC5=O)C7=O)C6)CC4)nn3)CC2)ccc1C#N (stereo partly drawn) [Compound 275] | – | – | DC50: < 10 nM; Dmax: > 80% |
| CC1(C)[C@H](Oc2ccc(C#N)c(Cl)c2)C(C)(C)[C@H]1N1Cc2nc(C#C[C@H]3C[C@H](N4CCN(c5cc6c(cc5F)C(=O)N(C5CCC(=O)NC5=O)C6=O)CC4)C3)cnc2C1=O (stereo partly drawn) [Compound 391] | – | – | DC50 [3]: 100 to 300 nM; Dmax [4]: > 80% |
| N#Cc1ccc(O[C@H]2CC[C@H](NC(=O)c3cn([C@H]4CC[C@H](CN5CCC6(CC5)CN(c5cc7c(cc5F)C(=O)N(C5CCC(=O)NC5=O)C7=O)C6)CC4)nn3)CC2)cc1Cl (stereo partly drawn) [Compound 115] | < 10 | > 80 | – |
| N#Cc1ccc(OC2CCC(NC(=O)c3cnc(N4CC5(CCN(CC6CCN(c7cc8c(cc7F)C(=O)N(C7CCC(=O)NC7=O)C8=O)CC6)CC5)C4)cn3)CC2)cc1Cl (stereo not drawn) [Compound 235, N-((1r,4r)-4-(3-chloro-4-cyanophenoxy)cyclohexyl)-5-(7-((1-(2-(2,6-dioxopiperidin-3-yl)-6-fluoro-1,3-dioxoisoindolin-5-yl)piperidine-4-yl)methyl)-2,7-diazaspiro[3.5]nonan-2-yl)pyrazine-2-carboxamide] | < 10 | > 80 | – |
| CC1(C)[C@H](Oc2ccc(C#N)c(Cl)c2)C(C)(C)[C@H]1N1Cc2nc(C#CC3CC(N4CC5CN(c6cc7c(cc6F)C(=O)N(C6CCC(=O)NC6=O)C7=O)CC5C4)C3)ccc2C1=O (stereo partly drawn) [Compound 361, 2-Chloro-4-((1r,3r)-3-(2-((3-(5-(2,6-dioxopiperidin-3-yl)-6-fluoro-1,3-dioxoisoindolin-5-yl)hexahydropyrrolo[3,4-c]pyrrol-2(1H)-cyclobutyl)ethynyl)-5-oxo-5,7-dihydro-6H-pyrrolo[3,4-b]pyridin-6-yl)-2,2,4,4-tetramethylcyclobutoxy) benzonitrile] | 10 to 100 | – | – |
| N#Cc1ccc(O[C@H]2CC[C@H](NC(=O)c3ccc(N4CCC(CN5CCC6(CC5)CN(c5cc7c(cc5F)C(=O)N(C5CCC(=O)NC5=O)C7=O)C6)CC4)cc3)CC2)cc1Cl (stereo partly drawn) [Compound 191, N-((1r,4r)-4-(3-chloro-4-cyanophenoxy)cyclohexyl)-4-(4-((2-(2-(2,6-dioxopiperidin-3-yl)-6-fluoro-1,3-dioxoisoindolin-5-yl)-2,7-diazaspiro[3.5]nonan-7-yl)methyl)piperidin-1-yl)benzamide] | < 10 | > 80 | – |
| N#Cc1ccc(O[C@H]2CC[C@H](NC(=O)c3ccc(N4CCCN(C[C@@H]5[C@H]6CN(c7cc8c(cc7F)C(=O)N(C7CCC(=O)NC7=O)C8=O)C[C@@H]56)CC4)nn3)CC2)cc1Cl (stereo partly drawn) [Compound 93] | 10 to 100 | 60 to 80 | – |
| N#Cc1ccc(O[C@H]2CC[C@H](NC(=O)c3ccc(N4CCC(CN5CCC6(CC5)CN(c5ccc7c(c5)C(=O)N(C5CCC(=O)NC5=O)C7=O)C6)CC4)cc3)CC2)cc1Cl (stereo partly drawn) [Compound 192] | < 10 | > 80 | – |
| N-((1r,4r)-4-(3-chloro-4-cyanophenoxy)cyclohexyl)-6-(2-((1-(2,6-dioxopiperidin-3-yl)-6-fluoro-1,3-dioxoisoindolin-5-yl)piperidine-4-yl)methyl)-2,7-diazaspiro[(3.5]nonan-7-yl)-N-(methyl-d3)pyridazine-3-formamide [Compound 91] | – | – | Dmax (%): + (key: ++++: >80%; +++: 80%-60%; ++: 60%-40%; +: <40%); DC50 (read-out: DC50): > 300 nM |
| CC1(C)[C@H](Oc2ccc(C#N)c(Cl)c2)C(C)(C)[C@H]1N1Cc2nc(C#C[C@H]3C[C@H](N4CCN(c5cc(=O)n(C6CCC(=O)NC6=O)cn5)CC4)C3)ccc2C1=O (stereo partly drawn) [Compound 395] | – | – | DC50 [3]: 100 to 300 nM; Dmax [4]: 40 to 60% |
| Cc1ncsc1-c1ccc([C@H](C)NC(=O)[C@@H]2C[C@@H](O)CN2C(=O)[C@@H](NC(=O)COCCCCC#Cc2ccc3c(n2)CN([C@H]2C(C)(C)[C@H](Oc4ccc(C#N)c(Cl)c4)C2(C)C)C3=O)C(C)(C)C)cc1 [Compound 36, (2S,4R)-1-((S)-2-(2-((6-(6-((1r,3r)-3-(3-chloro-4-cyanophenoxy)-2,2,4,4-tetramethylcyclobutyl)-5-oxo-6,7-dihydro-5H-pyrrolo[3,4-b]pyridin-2-yl)hex-5-yn-1-yl)oxy)acetylamino)-3,3-dimethylbutyryl)-4-hydroxy-N-((S)-1-(4-(4-methylthiazol-5-yl)phenyl)ethyl)pyrrolidine-2-carboxamide] | – | – | inhibition at 0.1 µM (VCaP cells, 16 h, ELISA): 25 to 49% |
| N#Cc1ccc(O[C@H]2CC[C@H](NC(=O)c3cnc(N4CCC5(CC4)CN(CC4CCN(c6cc7c(cc6F)C(=O)N(C6CCC(=O)NC6=O)C7=O)CC4)C5)cn3)CC2)cc1Cl (stereo partly drawn) [Compound 76] | < 10 | > 80 | – |
| N#Cc1ccc(O[C@H]2CC[C@H](NC(=O)c3ncc(N4CCC(CN5CCC6(CC5)CN(c5ccc7c(c5)C(=O)N(C5CCC(=O)NC5=O)C7=O)C6)CC4)cn3)CC2)cc1Cl (stereo partly drawn) [Compound 149] | – | – | DC50: > 300 nM; Dmax: < 40% |
| N#Cc1ccc(O[C@H]2CC[C@H](NC(=O)c3ncc(N4CCC(CN5CCC6(CC5)CN(c5cc7c(cc5F)C(=O)N(C5CCC(=O)NC5=O)C7=O)C6)CC4)cn3)CC2)cc1Cl (stereo partly drawn) [Compound 148] | – | – | DC50: > 300 nM; Dmax: 40 to 60% |
| CC1(C)[C@H](Oc2ccc(C#N)c(Cl)c2)C(C)(C)[C@H]1N1Cc2nc(C#C[C@H]3C[C@H](N4CCN(c5cc6c(cc5F)C(=O)N(C5CCC(=O)NC5=O)C6=O)CC4)C3)ccc2C1=O (stereo partly drawn) [Compound 357] | < 10 | > 80 | – |
